Earlier results, collected in patent US20110183005A1, “PROCESS FOR THE PREPARATION OF CO[…] OF STABILIZED HYPOBROMITES” (BROMINE COMPOUNDS LTD., priority 2002, published 2011).

Details: at 25° C.

For `OBr` [Hypobromous acid], which pK is on record?
The pK was 8.8.
